Experimental data from US10729636B2, “Compositions comprising peptide [sequence]” (NURITAS LIMITED, priority 2016, dated 2020).

Experiments:
Human skeletal myoblasts = test: Glucose uptake (2-DG), skeletal myoblasts; type: cell-based; details: 3 h, compared with untreated control
Method: (§1) Glucose uptake in skeletal muscle cells was measured using 2-deoxyglucose (2-DG). 2-DG is taken up by glucose transporters and metabolized to 2-DG-6-phosphate (2-DG6P). The amount of accumulated non-metabolized 2-DG6P is proportional to glucose uptake by cells.
Human skeletal myoblasts (Sigma 150-05a) were seeded in a 96 well plate at 10,000 cells per well in Skeletal Muscle Differentiation medium and allowed to differentiated for 72 h prior to experimentation.
The differentiated cells were serum starved for 24 h prior to stimulation with insulin or synthetic peptides. After starvation, the serum free media was removed, cells rinsed with Phosphate Buffered Saline (PBS) and media replaced with 100 μl of Krebs-Ringer-Phosphate-HEPES (KRPH) and incubated for 1 h.
The cells were then stimulated with 100 nM insulin for 30 minutes or 5 μg/ml, 0.5 μg/ml or 0.05 μg/ml synthetic peptide for 3 h respectively.
(§2) Following stimulation, the cells were incubated with 10 μl/well of 2-DG solution for 40 min and glucose uptake was measured using the ‘PrismColor Glucose Uptake Assay Kit’ (Molecutools), all steps were carried out according to the manufacturer's instructions. The experiment was repeated using HACAT cells.

GLUT-4 = GLUT-4 translocation (membrane fraction ELISA); type: cell-based, Human; details: HSKMC cells, 2 hrs, FIG. 8
Method: […] Upon completion of treatment, cell membrane proteins were collected. Briefly, cells were harvested from the wells with a cell scraper and centrifuged at 300×g for 5 min. The cell pellet was washed with 300 ul of cell wash solution and then re centrifuged at 300×g for 5 min. The supernatant was discarded and the cells resuspended in 1.5 ml of cell wash solution and transferred to a 2 ml centrifuge tube. The cells were then centrifuged at 300×g for 5 min and the supernatant discarded. 150 ul of permeabilization buffer was added to the cell pellet and vortexed briefly to obtain a homogenous cell suspension. The suspension was then incubated at 4° C. for 10 min with constant mixing. […] The supernatant containing solubilized membrane and membrane associated proteins fractions was transferred to a new tube and stored at −80° C. until ready for assessment.
GLUT-4 was assessed in the cell membrane fractions using a sandwich ELISA from LSBio. […] 50 ul of stop solution was added to each well and the optical density of the sample was determined using a microplate reader set to 450 nm. GLUT-4 concentration in the samples was calculated off the standard curve after generating a four-parameter logistic (4-PL) curve fit. Sample concentration read of the curve was then adjusted by multiplying the results by the dilution factor.

HACAT cells [1] = test: Cell proliferation assay (BrDu), HACAT; type: cell-based; details: compared with untreated control, FIG. 2
Method: BrDu is incorporated into newly synthesised DNA strands of actively proliferating cells. Following partial denaturation of double stranded DNA, BrDu is detected immunochemically allowing the assessment of the population of cells which are synthesizing DNA.
Following the initial 24 h incubation the cells were incubated with 5 μg/ml, 0.5 μg/ml or 0.05 μg/ml synthetic peptide for 24 h respectively.
After 18 h incubation with synthetic peptides 20 μl BrDu reagent was added to each well. At 24 h incubation the cells were fixed and the amount of […] was measured using the BrdU Cell Proliferation Assay, all steps were carried out according to the manufacturer's instructions.
This experiment was then repeated using HACAT cells.

HACAT cells [2] = test: Glucose uptake (2-DG), HACAT; type: cell-based; details: compared with untreated control, FIG. 5
Method: as §1, §2

protein synthesis = test: Puromycin ELISA (protein synthesis); type: cell-based; details: FIG. 10
From the text: Puromycin is an aminonucleoside antibiotic produced by the bacterium Streptomyces alboniger. It is a structural analogue of aminoacyl-transfer RNA and, as such, can be incorporated into elongating peptide chains via the formation of a peptide bond. However, whereas aminoacyl-tRNAs contain a hydrolyzable ester bond, puromycin hasn't it in the equivalent position. Thus, the binding of puromycin to a growing peptide chain prevents a new peptide bond from being formed with the next aminoacyl-tRNA. As a consequence, puromycin binding results in the termination of peptide elongation, and leads to the release of the truncated puromycin bound peptide from the ribosome. […] This later property makes puromycin a potential tool for the measurement of changes in protein synthesis rates.
1. Dispense […] Coating Buffer per well in the required number of wells in a 96 well ELISA plate. Dilute and mix the Protein extract (in the same buffer the sample is in) to […]. Immediately dispense 1 μl/well into plate.
2. Incubate the plate at 4° C. for 16-24 h.
3. Vigorously shake out contents. Wash 1× with 200 ul PBS.
4. Add 200 μl Blocking Solution (5% BSA in PBS). Incubate over the day 4-6 h at RT.
5. Dilute Puromycin antibody in Blocking solution and incubate overnight at 4° C.
8. Wash 2× with 200 ul PBS
9. […]
12. Add Stop solution and read the plate at 450 nm.

WKDEAGKPLVK [SEQ ID NO. 1]
increase: glucose uptake (Human skeletal myoblasts; 0.5 μg/ml, FIG. 6) | glucose uptake (Human skeletal myoblasts; 5 μg/ml, FIG. 7) | GLUT4 translocation (GLUT-4; 0.05 ug/ml) | GLUT4 translocation (GLUT-4; 5 ug/ml) | cell proliferation (HACAT cells [1]) | glucose uptake (HACAT cells [2]) | protein synthesis (protein synthesis)
